Measured values: patent publication US20240287076A1, “COMPOUNDS FOR TARGETING DEGRADATION OF BRUTON'S TYROSINE KINASE” (BIOGEN MA INC., priority 2021, published 2024)

What follows are molecules tested against T1, BTK (Homo sapiens, UniProt Q06187) (assay: BTK degradation assay using the HiBiT Method (Nano-Glo HiBiT Lytic Assay, GM01501.3 cells)). Details: HiBiT Degradation on GM01501.3 BTK @ 6 hours.
T1 construct: The GM01501.3 cell line endogenously expresses BTK with a HiBiT fusion tag via CRISPR knock-in at its C-terminal region; endogenous in cells; host or cells: GM01501.3 (GM01501 cells engineered by CRISPR knock-in of HiBiT at the BTK locus)
Format: cell-based
Experimental: Selected compounds were tested in a BTK degradation assay using the HiBiT Method. Park Memorial Institute (RPM1) 1640 Medium with phenol red, L-Glutamine, Sodium Pyruvate, and fetal bovine serum (FBS) were purchased from Gibco (Grand Island, NY, USA). Nano-Glo® HiBiT Lytic Assay System was purchased from Promega (Madison, WI, USA). GM01501 cells were obtained from the NIGMS Human Genetic Cell Repository at the Coriell Institute for Medical Research. The GM01501.3 cell line endogenously expresses BTK with a HiBiT fusion tag via CRISPR knock-in at its C-terminal region. It was engineered by electroporation with the Neon Transfection System (Themo Fisher Scientific), according to manufacturer indications. Electroporation conditions: 1 pulse of 1,350 V for 30 ms for 0.5×10_6 cells. Cell culture flasks and 384-well microplates were acquired from VWR (Radnor, PA, USA). BTK degradation was evaluated by quantification of luminescent signal using Nano-Glo® HiBiT Lytic Assay kit. Test compounds were added to the 384-well plate from a top concentration of 10 μM with 11 points, half log titration in duplicates. GM01501.3 cells were added into 384-well plates at a cell density of 10,000 cells per well in a total volume of 30 μl. The plates were kept at 37° C. with 5% CO2 for 6 hours. Negative control wells included cells treated with DMSO only and positive control wells included only growing media, without Nano-Glo® HiBiT Lytic reagent. After a 6-hour incubation, Nano-Glo® HiBiT Lytic Assay reagent was added to the cells following manufacturer indications. Luminescence was acquired on EnVision™ Multilabel Reader (PerkinElmer, Santa Clara, CA, USA). […] “++++” represents a DC50 value of less than 100 nM. “+++” represents a DC50 value of 100 nM-500 nM. “++” represents a DC50 value of 500 nM-1000 nM. “+” represents a DC50 value of greater than 1000 nM.

T1 sequence (Q06187 whole entry, the tested form may be a part): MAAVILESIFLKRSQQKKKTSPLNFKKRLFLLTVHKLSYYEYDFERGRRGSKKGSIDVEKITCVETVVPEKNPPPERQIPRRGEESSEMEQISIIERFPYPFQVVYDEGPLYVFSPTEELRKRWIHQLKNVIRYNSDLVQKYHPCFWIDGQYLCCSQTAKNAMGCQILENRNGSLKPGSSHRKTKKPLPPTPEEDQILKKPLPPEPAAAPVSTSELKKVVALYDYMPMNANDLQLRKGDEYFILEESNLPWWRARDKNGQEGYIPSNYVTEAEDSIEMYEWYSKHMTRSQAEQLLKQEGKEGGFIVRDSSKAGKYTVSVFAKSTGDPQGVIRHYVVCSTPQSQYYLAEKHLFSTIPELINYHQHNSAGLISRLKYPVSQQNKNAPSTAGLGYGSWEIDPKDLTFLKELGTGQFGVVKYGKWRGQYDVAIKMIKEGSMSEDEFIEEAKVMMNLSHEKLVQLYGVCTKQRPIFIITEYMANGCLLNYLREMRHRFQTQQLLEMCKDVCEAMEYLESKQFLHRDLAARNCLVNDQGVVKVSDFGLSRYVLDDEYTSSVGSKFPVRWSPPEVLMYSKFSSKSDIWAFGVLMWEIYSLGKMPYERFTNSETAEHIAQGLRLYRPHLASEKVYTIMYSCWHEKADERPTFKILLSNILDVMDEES

| Structure (SMILES) | DC50 |
| --- | --- |
| COc1cc(CN2CCC(c3ccc(C4CCC(=O)NC4=O)cc3)CC2)ccc1OCCOc1cccc(-c2cc3c(-c4ccc(CNC(=O)c5noc(C(C)(C)C)n5)c(C)c4)ncnn3c2)c1 (stereo not drawn) [Example 204] | 100 to 500 nM |
| Cc1cc(-c2ncnn3cc(N4CCN(CCCCc5ccc6c(N7CCC(=O)NC7=O)nn(C)c6c5)CC4)cc23)ccc1CNC(=O)c1noc(C(C)(C)C)n1 [Example 297, 5-(tert-butyl)-N-(4-(6-(4-(4-(3-(2,4-dioxotetrahydropyrimidin-1(2H)-yl)-1-methyl-1H-indazol-6-yl)butyl)piperazin-1-yl)pyrrolo[2,1-f][1,2,4]triazin-4-yl)-2-methylbenzyl)-1,2,4-oxadiazole-3-carboxamide] | < 100 nM |
| Cc1cc(-c2ncnn3cc(-c4ccc(CN5CCC(c6ccc(NC7CCC(=O)NC7=O)cc6)CC5)cc4)cc23)ccc1CNC(=O)c1ccc(C(F)(F)F)nc1 (stereo not drawn) [Example 63, N-[[4-[6-[4-[[4-[4-[(2,6-dioxo-3-piperidyl)amino]phenyl]-1-piperidyl]methyl]phenyl]pyrrolo[2,1-f][1,2,4]triazin-4-yl]-2-methyl-phenyl]methyl]-6-(trifluoromethyl)pyridine-3-carboxamide] | < 100 nM |
| Cc1cc(-c2ncnn3cc(CCCCN4CCC(c5ccc6c(N7CCC(=O)NC7=O)nn(C)c6c5)C(F)(F)C4)cc23)ccc1CNC(=O)c1noc(C(C)(C)C)n1 (stereo not drawn) [Example 283, 5-(tert-butyl)-N-(4-(6-(4-(4-(3-(2,4-dioxotetrahydropyrimidin-1(2H)-yl)-1-methyl-1H-indazol-6-yl)-3,3-difluoropiperidin-1-yl)butyl)pyrrolo[2,1-f][1,2,4]triazin-4-yl)-2-methylbenzyl)-1,2,4-oxadiazole-3-carboxamide] | < 100 nM |
| Cc1cc(-c2ncnn3cc(CCCCN4CCC(c5ccc(N6CCC(=O)NC6=O)cc5)CC4)cc23)ccc1CNC(=O)c1noc(C(C)(C)C)n1 [Example 129, 5-tert-butyl-N-[[4-[6-[4-[4-[4-(2,4-dioxohexahydropyrimidin-1-yl)phenyl]-1-piperidyl]butyl]pyrrolo[2,1-f][1,2,4]triazin-4-yl]-2-methyl-phenyl]methyl]-1,2,4-oxadiazole-3-carboxamide] | < 100 nM |
| CC(C)(C)c1nc(C(=O)NCc2ccc(-c3ncnn4cc(-c5ccc(CN6CCC(c7ccc(C8CCC(=O)NC8=O)cc7)CC6)cc5)cc34)cc2)no1 (stereo not drawn) [Example 40, 5-tert-butyl-N-[[4-[6-[4-[[4-[4-(2,6-dioxo-3-piperidyl)phenyl]-1-piperidyl]methyl]phenyl]pyrrolo[2,1-f][1,2,4]triazin-4-yl]phenyl]methyl]-1,2,4-oxadiazole-3-carboxamide] | < 100 nM |
| Cc1cc(-c2ncnn3cc(C4CC4CN4CCC(c5ccc(NC6CCC(=O)NC6=O)cc5)CC4)cc23)ccc1CNC(=O)c1noc(C(C)(C)C)n1 (stereo not drawn) [Example 145, 5-tert-butyl-N-[[4-[6-[2-[[4-[4-[(2,6-dioxo-3-piperidyl)amino]phenyl]-1-piperidyl]methyl]cyclopropyl]pyrrolo[2,1-f][1,2,4]triazin-4-yl]-2-methyl-phenyl]methyl]-1,2,4-oxadiazole-3-carboxamide] | < 100 nM |
| Cc1cc(-c2ncnn3cc(CCN4CCC(c5ccc6c(C7CCC(=O)NC7=O)nn(C)c6c5)CC4)cc23)ccc1CNC(=O)c1ccn(C(C)(C)C)n1 (stereo not drawn) [Example 273, 1-(tert-butyl)-N-(4-(6-(2-(4-(3-(2,6-dioxopiperidin-3-yl)-1-methyl-1H-indazol-6-yl)piperidin-1-yl)ethyl)pyrrolo[2,1-f][1,2,4]triazin-4-yl)-2-methylbenzyl)-1H-pyrazole-3-carboxamide] | < 100 nM |
| Cc1cc(-c2ncnn3cc(-c4ccc(C(=O)NC5CCc6cc(NC7CCC(=O)NC7=O)ccc6C5)cc4)cc23)ccc1CNC(=O)c1noc(C(C)(C)C)n1 (stereo not drawn) [Example 197, 5-(tert-butyl)-N-(4-(6-(4-((6-((2,6-dioxopiperidin-3-yl)amino)-1,2,3,4-tetrahydronaphthalen-2-yl)carbamoyl)phenyl)pyrrolo[2,1-f][1,2,4]triazin-4-yl)-2-methylbenzyl)-1,2,4-oxadiazole-3-carboxamide] | < 100 nM |
| Cc1cc(-c2ncnn3cc(-c4cccc(CN5CCC(c6ccc(NC7CCC(=O)NC7=O)cc6)CC5)c4)cc23)ccc1CNC(=O)c1noc(C(C)(C)C)n1 (stereo not drawn) [Example 50, 5-tert-butyl-N-[[4-[6-[3-[[4-[4-[(2,6-dioxo-3-piperidyl)amino]phenyl]-1-piperidyl]methyl]phenyl]pyrrolo[2,1-f][1,2,4]triazin-4-yl]-2-methyl-phenyl]methyl]-1,2,4-oxadiazole-3-carboxamide] | < 100 nM |

Other lines, results leading:

| DC50 | Structure (SMILES) |
| --- | --- |
| < 100 nM | Cc1cc(-c2ncnn3cc(-c4ccc(CN5CCC(c6ccc(NC7CCC(=O)NC7=O)cc6)CC5)cc4C)cc23)ccc1CNC(=O)c1noc(C(C)(C)C)n1 (stereo not drawn) [Example 17, 5-tert-butyl-N-[[4-[6-[4-[[4-[4-[(2,6-dioxo-3-piperidyl)amino]phenyl]-1-piperidyl]methyl]-2-methyl-phenyl]pyrrolo[2,1-f][1,2,4]triazin-4-yl]-2-methyl-phenyl]methyl]-1,2,4-oxadiazole-3-carboxamide] |
| < 100 nM | Cc1cc(-c2ncnn3cc(N4CCN(C(=O)C5(CNC(=O)c6ccc(OC7CCC(=O)NC7=O)cc6)CC5)CC4)cc23)ccc1CNC(=O)c1noc(C(C)(C)C)n1 (stereo not drawn) [Example 174, 5-(tert-butyl)-N-(4-(6-(4-(1-((4-((2,6-dioxopiperidin-3-yl)oxy)benzamido)methyl)cyclopropane-1-carbonyl)piperazin-1-yl)pyrrolo[2,1-f][1,2,4]triazin-4-yl)-2-methylbenzyl)-1,2,4-oxadiazole-3-carboxamide] |
| < 100 nM | CC(C)(C)c1nc(C(=O)NCc2ccc(-c3ncnn4cc(-c5ccc(CN6CCN(Cc7cccc(OC8CCC(=O)NC8=O)c7)CC6)cn5)cc34)cc2F)no1 (stereo not drawn) [Example 235, 5-(tert-butyl)-N-(4-(6-(5-((4-(3-((2,6-dioxopiperidin-3-yl)oxy)benzyl)piperazin-1-yl)methyl)pyridin-2-yl)pyrrolo[2,1-f][1,2,4]triazin-4-yl)-2-fluorobenzyl)-1,2,4-oxadiazole-3-carboxamide] |
| < 100 nM | Cc1cc(-c2ncnn3cc(N4CCN(C(=O)CC5CC6(C5)CN(C(=O)c5ccc(OC7CCC(=O)NC7=O)cc5)C6)CC4)cc23)ccc1CNC(=O)c1noc(C(C)(C)C)n1 (stereo not drawn) [Example 185, 5-(tert-butyl)-N-(4-(6-(4-(2-(2-(4-((2,6-dioxopiperidin-3-yl)oxy)benzoyl)-2-azaspiro[3.3]heptan-6-yl)acetyl)piperazin-1-yl)pyrrolo[2,1-f][1,2,4]triazin-4-yl)-2-methylbenzyl)-1,2,4-oxadiazole-3-carboxamide] |
| < 100 nM | Cc1cc(-c2ncnn3cc(-c4ccc(CN5CCC(c6ccc(NC7CCC(=O)NC7=O)c(F)c6)CC5)cc4)cc23)ccc1CNC(=O)c1noc(C(C)(C)C)n1 (stereo not drawn) [Example 18, 5-tert-butyl-N-[[4-[6-[4-[[4-[4-[(2,6-dioxo-3-piperidyl)amino]-3-fluoro-phenyl]-1-piperidyl]methyl]phenyl]pyrrolo [2,1-f][1,2,4]triazin-4-yl]-2-methyl-phenyl]methyl]-1,2,4-oxadiazole-3-carboxamide] |
| < 100 nM | CCc1ccc(C(=O)NCc2ccc(-c3ncnn4cc(-c5ccc(CN6CCC(c7ccc(NC8CCC(=O)NC8=O)cc7)CC6)cc5)cc34)cc2C)cc1 (stereo not drawn) [Example 67, N-[[4-[6-[4-[[4-[4-[(2,6-dioxo-3-piperidyl)amino]phenyl]-1-piperidyl]methyl]phenyl]pyrrolo[2,1-f][1,2,4]triazin-4-yl]-2-methyl-phenyl]methyl]-4-ethyl-benzamide] |
| < 100 nM | Cc1c(NC(=O)c2cc3c(s2)CCCC3)cc(F)cc1-c1ncnn2cc(-c3ccc(CN4CCC(c5ccc(NC6CCC(=O)NC6=O)cc5)CC4)cc3)cc12 (stereo not drawn) [Example 152, N-(3-(6-(4-((4-(4-((2,6-dioxopiperidin-3-yl)amino)phenyl)piperidin-1-yl)methyl)phenyl)pyrrolo[2,1-f][1,2,4]triazin-4-yl)-5-fluoro-2-methylphenyl)-4,5,6,7-tetrahydrobenzo[b]thiophene-2-carboxamide] |
| < 100 nM | CC(C)(C)c1nc(C(=O)NCc2ccc(-c3ncnn4cc(-c5ccc(CN6CCN(c7ccc(C8CCC(=O)NC8=O)cn7)CC6)cc5)cc34)cc2F)no1 (stereo not drawn) [Example 36, 5-tert-butyl-N-[[4-[6-[4-[[4-[5-(2,6-dioxo-3-piperidyl)-2-pyridyl]piperazin-1-yl]methyl]phenyl]pyrrolo[2,1-f][1,2,4]triazin-4-yl]-2-fluoro-phenyl]methyl]-1,2,4-oxadiazole-3-carboxamide] |
